5 molecules from US20260234159A1, “SMALL MOLECULE TREATMENT OF FATTY LIVER DISEASE AND HCC” (SCANDIEDGE THERAPEUTICS AB, priority 2023, published 2026) can be followed below.

Data set [1] relates to HepG2 cells. The experiment in a line: Invasion assay (transwell). It is filed as cell-based, human. Particulars: Homo sapiens, HepG2, 24 hr, read-out: invasiveness reduced by. Put shortly:
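HepG2 cells (100,000) in serum-free medium with compounds placed on collagen-coated 8 μm transwell membranes, with 10% FBS medium below as attractant. After one day at 37 °C, cells fixed in formaldehyde and stained with crystal violet. Invaded cells on the outer membrane imaged and counted.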

For data set [2], the system named is HepG2 cells. Nature of the data set: Wound healing assay. It counts as cell-based. Particulars: Homo sapiens, HepG2, 96 h, day 4, untreated 100% wound closure, read-out: wound healing delayed by. The method in brief: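 HepG2 monolayers grown to 95-100% confluence were scratched with a pipette tip and treated with compounds at 1 μM. Wounds were imaged from day 0 until closure in the control group, and wound area was measured from the images.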

Data set [3] relates to HepG2 cells. The experiment in a line: Triglyceride (TAG) measurement assay, one week steatosis model. Particulars: for activity at 10 µM: Homo sapiens. It is filed as cell-based, human. Put shortly:
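HepG2 cells steatosis-induced for one week in high-glucose DMEM/10% FBS with 10 μg/ml insulin and 10 μM T0901317, media changed at days 0, 3 and 5, with 10 μM test compound throughout. Triglyceride measured colorimetrically (OD 570 nm); viability by MTT.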

Data set [4] has as its system HepG2 cells. The experiment in a line: FACs analysis with PI staining (cell cycle). It is filed as cell-based, human. Particulars: for Cell population G0/G1 / Cell population G2/M / Cell population S: PI FACs, 10 μM, 2 days; for cells in the G2/M phase: histogram plots. The procedure:
400,000 HepG2 cells were seeded in a 6-well plated and treated with 10 μM of the compounds for 2 days. Cells were fixed with 70% ethanol and stained with 50 μg/ml PI. Prepared cells were analysed using BD FACS Canto II Flow Cytometry system at PE-A channel 10,000 cells per group. The data was histogram plotted with BD FACSDiva 9.0.

Data set [5] in a line: MTT cell viability after one week steatosis (ranking of target molecules). It is filed as cell-based, human. The settings on record: human, HepG2 cells (wild type); HepG2, 10 μM, one week steatosis induce media, MTT; Control 100.00. The method in brief: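 HepG2 cells, 60,000 per well, kept one week in steatosis medium (high-glucose DMEM, 10 μg/ml insulin, 10 μM T0901317) with 10 μM compound. Medium changed at day 0, 3 and 5. Viability measured by MTT.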

The subject of data set [6] is HepG2 cells. The experiment in a line: Mitochondrial membrane potential assay (TMRE). It counts as cell-based, human. Particulars: 10 μM, one day. The method in brief: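 HepG2 cells treated with compounds at the chosen concentration and time, then assayed with kits for TMRE, autophagy, DCFDA ROS or lipid peroxidation. Fluorescence intensity measured from ROI in images or by microplate reader in triplicate (GFP Ex480/Em530 nm, RFP Ex549/Em574 nm).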

Where [7] appears, read: 168 h, HepG2, 10 μM, one week steatosis induce media, Control 100.00, read-out: TAG (%).
Setting [8] is: HepG2, 168 h, ratio between TAG content and cell viability, Control 100.0, read-out: TAG/cell viability.

Where two headings read alike, the source gives them in different places.

In the case of `N#Cc1c(NC(=O)c2cccc3ccccc23)sc2c1CCCC2` [JNK-IN-5A, N-(3-cyano-4,5,6,7-tetrahydrobenzo[b]thiophen-2-yl)-1-naphthamide], the inhibition at 1 µM is 24.9% in the data set with HepG2 cells [1] and 32.7% with HepG2 cells [2]. The activity at 10 µM worked out at 33% in the data set on HepG2 cells [3] (setting [7]) and 58.4% in the data set on HepG2 cells [3] (setting [8]). For the same molecule, in the data set on HepG2 cells [4] (PI FACS), the “cell cycle distribution / arrest” value is given as “significant G2/M cell cycle arrest”. In addition, the “Cell population G0/G1” value in the data set with HepG2 cells [4] is listed as 22.7. Moreover, the “Cell population G2/M” value in the data set with HepG2 cells [4] stood at 67.3. In the data set with HepG2 cells [4], the “Cell population S” value is 4.4. The viability at 1 week, 10 µM in data set [5] was found to be 56.4%. For the same molecule, the mitochondrial membrane potential result in the data set on HepG2 cells [6] is recorded as “significantly decreased”.
On to `COc1ccc(C(=O)Nc2sc3c(c2C#N)CCCCC3)cc1OC` [PKL-A135, N-(3-cyano-5,6,7,8-tetrahydro-4H-cyclohepta[b]thiophen-2-yl)-3,4-dimethoxy-benzamide], for which the inhibition at 1 µM with HepG2 cells [1] amounted to 29.5%. Besides, the inhibition at 1 µM with HepG2 cells [2] came out at 31.2%. In the data set with HepG2 cells [3] (setting [7]), the activity at 10 µM is 49.1%. In addition, the activity at 10 µM in the data set with HepG2 cells [3] (setting [8]) amounted to 77.6%. For the same molecule, in the data set on HepG2 cells [4], the “Cell population G0/G1” value worked out at 5.5, the “Cell population G2/M” value was 79.9, the “Cell population S” value was 2.0 and the “cells in the G2/M phase” value is on record as “around 89%”. Also, the viability at 1 week, 10 µM in data set [5] turned out to be 63.2%. In addition, the mitochondrial membrane potential entry in the data set on HepG2 cells [6] is “significantly decreased”.
Consider `COc1ccccc1NC(=O)N1CCc2c(sc(NC(=O)c3cccc4ccccc34)c2C#N)C1` [PKL-A152], for which the “ratio between TAG content and cell viability” value in the data set with HepG2 cells [3] is “low ratio between TAG content and cell viability”. Further, the activity at 10 µM with HepG2 cells [3] (setting [7]) amounted to 10.8%; in the data set with HepG2 cells [3] (setting [8]), 24.5%. In the data set on HepG2 cells [3] (ratio as printed in text with %), the TAG/cell viability was 24.5%. Moreover, in data set [5], the viability at 1 week, 10 µM was determined as 43.9%.
`N#Cc1c(NC(=O)c2cccc3ccccc23)sc2c1CCN(C(=O)Nc1ccccc1OC(F)(F)F)C2` [PKL-A159]: the inhibition at 1 µM with HepG2 cells [1] was 77.8%. Besides, the inhibition at 1 µM with HepG2 cells [2] amounted to 35.5%. Also, the activity at 10 µM with HepG2 cells [3] (setting [7]) turned out to be 4.54%. For the same molecule, in the data set with HepG2 cells [4], the “Cell population G0/G1” value was 30.5, the “Cell population G2/M” value turned out to be 62.4 and the “Cell population S” value is 3.3. Moreover, the viability at 1 week, 10 µM in data set [5] was 2.33%. The mitochondrial membrane potential result in the data set on HepG2 cells [6] was “significantly decreased”.
For `N#Cc1c(NC(=O)c2cccc3ccccc23)sc2c1CCN(CC(=O)Nc1cccc(Br)c1)C2` [PKL-B171], the inhibition at 1 µM in the data set on HepG2 cells [1] stood at 21.4%. In addition, in the data set with HepG2 cells [2], the inhibition at 1 µM came out at 36.4%. Further, the activity at 10 µM in the data set with HepG2 cells [3] (setting [7]) was 21.1%. Further, the activity at 10 µM with HepG2 cells [3] (setting [8]) was determined as 95.7%. In addition, in the data set on HepG2 cells [4], the “Cell population G0/G1” value was 6.6, the “Cell population G2/M” value is on record as 79.1, the “Cell population S” value is recorded as 3.6 and the “cells in the G2/M phase” value is “around 89%”. For the same molecule, in data set [5], the viability at 1 week, 10 µM was 22%. Also, the mitochondrial membrane potential entry with HepG2 cells [6] is recorded as “significantly decreased”.
